Measurements: patent US6790992B2, “Scyphostatin analogues as SMase inhibitors” (Biofrontera Pharmaceuticals GmbH, priority 2002, dated 2004)

Tests used:
[1] = tested on: sphingomyleinase activity of mmLDL-stimulated monocytes; assay: Sphingomyelinase activity in mmLDL-stimulated human monocytes; type: cell-based; details: compound 13 0.1-0 μm, 30 min pretreatment, then mmLDL 4 hours; average of 5 experiments; values only in FIG. 4
Protocol: Average values from 5 individual experiments.
90 nM BODIPY-FL-C5 sphingomylein (molecular probes) are dissolved in 200 μl ethanol, then injected into 10 ml PBS containing 0.75 mg/ml BSA. The solution is dialyzed extensively against PBS, the resulting dialyzate is sterile-filtered and diluted 1:1 using RPMI medium. Together with the solution a monolayer of human monocytes' is incubated with 5% CO2 at 37° C. for 4 hours, washed twice with 5 ml PBS, admixed with new medium and then incubated at the corresponding concentrations of compound (13) for 30 minutes. The pretreated cells are treated with slightly modified low-density lipoprotein (mmLDL)^10 for 4 hours and extracted according to Bligh and Dyer^11. The enzyme activity is determined by the ratio of BODIPY-FL-C5—sphingomyelin to BODIPY-FL-C5 ceramide^12.

[2] = tested on: human monocytes; assay: Antiapoptotic activity in TNFα-treated human monocytes (YOPRO-1 staining); type: cell-based; details: pretreatment 30 min, 0.1 μm, then TNFα 4 hours; average of 5 experiments; values only in FIG. 3
Protocol: In addition, part of the cells are pretreated with compound 13 (30 min., 0.1 μm). The percentage of apoptotic cells is determined in all of the samples by YOPRO-1 staining^10. Average values from 5 experiments.

[3] = Chemical, acid and redox stability; type: physicochemical
[4] = background statement, cited from earlier work

Inhibitory effect on the sphingomyleinase activity [1] | Chemical stability (e.g. stability in acidic solutions) ([3]; epoxide-free analogues, compared with natural scyphostatin) | Stability at pH 2 ([3]; pH values of 2 at 40° C. for a period of several hours) | Structure (SMILES) | Antiapoptotic activity (percentage of apoptotic cells) [2] | Chemical and metabolic stability ([4]; natural scyphostatin) | Stability in acid ([4]; natural substance)
Inhibitory effect | increased chemical stability | stable | CCCCCCCCCCCCCCCC(=O)N[C@H](CO)C[C@]1(O)CCC=CC1=O [compound 13, hexadecanoic acid-[1-hydroxymethyl-2-(1-hydroxy-2-oxo-cyclohex-3-enyl)ethyl]amide] | Antiapoptotic activity |  | 
 |  |  | CC[C@@H](C)/C=C(\C)C[C@@H](C)C[C@@H](C)/C=C/C=C/C=C/C(=O)N[C@H](CO)C[C@@]1(O)C(=O)C=C[C@@H]2O[C@@H]21 [scyphostatin] |  | chemically and metabolically very unstable | unstable in acid
